According to the kinase profiling compilation of Christmann-Franck et al. (2016):

Columns and labels:
Test in all cases: radiometric filter-binding kinase assay
[1] = molecular target: PTK6 (human) (UniProt Q13882)
[2] = molecular target: ABL1 (human) (UniProt P00519)
[3] = molecular target: ZAP70 (human) (UniProt P43403)
[4] = molecular target: STK33 (human) (UniProt Q9BYT3)
[5] = molecular target: STK16 (human) (UniProt O75716)
[6] = molecular target: PLK1 (human) (UniProt P53350)
[7] = molecular target: TEK (human) (UniProt Q02763)
[8] = molecular target: PRKCG (human) (UniProt P05129)
[9] = molecular target: TLK1 (human) (UniProt Q9UKI8)
[10] = molecular target: IRAK1 (human) (UniProt P51617)
[11] = molecular target: EIF2AK3 (human) (UniProt Q9NZJ5)
[12] = system: OXSR1 (human), O95747 [T185E]

Sequence of PTK6 (human) (Q13882 whole entry, looked up): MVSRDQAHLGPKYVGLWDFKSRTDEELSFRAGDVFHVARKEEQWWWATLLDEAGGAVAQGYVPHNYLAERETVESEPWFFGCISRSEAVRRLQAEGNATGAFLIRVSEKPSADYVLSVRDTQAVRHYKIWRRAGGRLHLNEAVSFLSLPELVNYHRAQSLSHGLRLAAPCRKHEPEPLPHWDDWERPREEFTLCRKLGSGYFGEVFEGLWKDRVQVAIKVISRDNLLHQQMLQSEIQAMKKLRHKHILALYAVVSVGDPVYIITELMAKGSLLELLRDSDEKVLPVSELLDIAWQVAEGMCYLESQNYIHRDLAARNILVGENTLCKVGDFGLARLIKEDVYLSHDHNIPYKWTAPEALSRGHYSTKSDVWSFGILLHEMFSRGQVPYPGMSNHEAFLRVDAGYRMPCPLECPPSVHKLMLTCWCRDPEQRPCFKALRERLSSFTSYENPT
Sequence of PLK1 (human) (P53350 whole entry, looked up): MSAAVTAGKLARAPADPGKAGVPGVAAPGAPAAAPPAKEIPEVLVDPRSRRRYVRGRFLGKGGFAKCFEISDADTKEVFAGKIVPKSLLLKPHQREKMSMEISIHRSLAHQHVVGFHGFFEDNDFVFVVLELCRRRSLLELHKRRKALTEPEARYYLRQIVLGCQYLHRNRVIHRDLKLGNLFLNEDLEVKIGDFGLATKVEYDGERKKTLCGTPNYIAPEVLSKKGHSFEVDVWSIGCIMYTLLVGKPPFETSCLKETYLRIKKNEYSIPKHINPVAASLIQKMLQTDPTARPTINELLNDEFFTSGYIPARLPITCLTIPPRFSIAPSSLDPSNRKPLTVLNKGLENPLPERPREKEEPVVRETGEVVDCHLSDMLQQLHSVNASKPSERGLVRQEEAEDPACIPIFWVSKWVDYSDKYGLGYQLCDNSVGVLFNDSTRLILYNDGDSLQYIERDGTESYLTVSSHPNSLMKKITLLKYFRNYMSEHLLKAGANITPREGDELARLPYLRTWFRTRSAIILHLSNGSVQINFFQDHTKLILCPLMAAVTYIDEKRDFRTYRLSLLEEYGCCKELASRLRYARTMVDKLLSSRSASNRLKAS
Sequence of TLK1 (human) (Q9UKI8 whole entry, looked up): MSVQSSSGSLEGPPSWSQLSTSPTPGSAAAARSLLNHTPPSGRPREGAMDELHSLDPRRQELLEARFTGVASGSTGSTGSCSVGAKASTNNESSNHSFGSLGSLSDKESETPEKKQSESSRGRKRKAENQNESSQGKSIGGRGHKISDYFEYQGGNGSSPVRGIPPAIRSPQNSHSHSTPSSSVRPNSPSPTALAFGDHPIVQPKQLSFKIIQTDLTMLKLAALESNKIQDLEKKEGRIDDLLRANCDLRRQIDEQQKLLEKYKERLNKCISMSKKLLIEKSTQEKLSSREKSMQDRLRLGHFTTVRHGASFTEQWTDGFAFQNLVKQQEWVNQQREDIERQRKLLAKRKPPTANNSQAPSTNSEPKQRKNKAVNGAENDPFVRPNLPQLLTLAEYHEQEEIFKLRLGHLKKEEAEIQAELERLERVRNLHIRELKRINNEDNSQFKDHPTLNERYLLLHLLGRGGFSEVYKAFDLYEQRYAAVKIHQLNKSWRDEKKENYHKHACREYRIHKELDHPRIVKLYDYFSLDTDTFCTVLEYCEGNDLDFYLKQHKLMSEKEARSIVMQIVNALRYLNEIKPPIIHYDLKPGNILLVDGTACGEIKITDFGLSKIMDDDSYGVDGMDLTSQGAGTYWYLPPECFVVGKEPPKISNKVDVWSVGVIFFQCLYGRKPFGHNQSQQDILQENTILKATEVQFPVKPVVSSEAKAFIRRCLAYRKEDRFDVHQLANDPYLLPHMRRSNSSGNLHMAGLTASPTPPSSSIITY
Sequence of EIF2AK3 (human) (Q9NZJ5 whole entry, looked up): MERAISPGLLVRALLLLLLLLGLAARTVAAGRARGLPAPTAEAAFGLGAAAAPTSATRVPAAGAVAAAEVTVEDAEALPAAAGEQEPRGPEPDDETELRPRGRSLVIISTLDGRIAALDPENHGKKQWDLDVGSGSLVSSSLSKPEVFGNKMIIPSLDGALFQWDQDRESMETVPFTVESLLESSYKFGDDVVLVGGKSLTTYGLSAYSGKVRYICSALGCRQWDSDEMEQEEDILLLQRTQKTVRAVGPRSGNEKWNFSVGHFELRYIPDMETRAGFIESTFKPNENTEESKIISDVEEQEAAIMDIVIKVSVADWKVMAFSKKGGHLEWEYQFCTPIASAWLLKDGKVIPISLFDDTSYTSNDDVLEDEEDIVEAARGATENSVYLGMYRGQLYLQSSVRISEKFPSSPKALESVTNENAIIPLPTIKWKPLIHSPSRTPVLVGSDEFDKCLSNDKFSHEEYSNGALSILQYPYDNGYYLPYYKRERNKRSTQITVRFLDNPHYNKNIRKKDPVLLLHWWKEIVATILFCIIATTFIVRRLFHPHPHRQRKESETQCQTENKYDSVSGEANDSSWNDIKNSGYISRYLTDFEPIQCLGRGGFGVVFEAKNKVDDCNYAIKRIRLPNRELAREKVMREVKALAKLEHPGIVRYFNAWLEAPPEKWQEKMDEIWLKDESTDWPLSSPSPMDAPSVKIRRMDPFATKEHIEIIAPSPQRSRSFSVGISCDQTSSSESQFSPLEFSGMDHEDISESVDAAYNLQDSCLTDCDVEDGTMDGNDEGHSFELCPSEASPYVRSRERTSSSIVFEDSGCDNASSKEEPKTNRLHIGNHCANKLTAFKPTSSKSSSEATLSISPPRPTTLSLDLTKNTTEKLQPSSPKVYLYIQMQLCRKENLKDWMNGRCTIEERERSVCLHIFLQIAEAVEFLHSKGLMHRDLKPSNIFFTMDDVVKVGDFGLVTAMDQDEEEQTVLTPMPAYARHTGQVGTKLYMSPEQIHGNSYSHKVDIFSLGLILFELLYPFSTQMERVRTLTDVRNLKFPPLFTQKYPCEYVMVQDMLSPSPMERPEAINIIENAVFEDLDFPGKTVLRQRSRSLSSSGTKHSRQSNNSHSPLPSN
Sequence of TEK (human) (Q02763 whole entry, looked up): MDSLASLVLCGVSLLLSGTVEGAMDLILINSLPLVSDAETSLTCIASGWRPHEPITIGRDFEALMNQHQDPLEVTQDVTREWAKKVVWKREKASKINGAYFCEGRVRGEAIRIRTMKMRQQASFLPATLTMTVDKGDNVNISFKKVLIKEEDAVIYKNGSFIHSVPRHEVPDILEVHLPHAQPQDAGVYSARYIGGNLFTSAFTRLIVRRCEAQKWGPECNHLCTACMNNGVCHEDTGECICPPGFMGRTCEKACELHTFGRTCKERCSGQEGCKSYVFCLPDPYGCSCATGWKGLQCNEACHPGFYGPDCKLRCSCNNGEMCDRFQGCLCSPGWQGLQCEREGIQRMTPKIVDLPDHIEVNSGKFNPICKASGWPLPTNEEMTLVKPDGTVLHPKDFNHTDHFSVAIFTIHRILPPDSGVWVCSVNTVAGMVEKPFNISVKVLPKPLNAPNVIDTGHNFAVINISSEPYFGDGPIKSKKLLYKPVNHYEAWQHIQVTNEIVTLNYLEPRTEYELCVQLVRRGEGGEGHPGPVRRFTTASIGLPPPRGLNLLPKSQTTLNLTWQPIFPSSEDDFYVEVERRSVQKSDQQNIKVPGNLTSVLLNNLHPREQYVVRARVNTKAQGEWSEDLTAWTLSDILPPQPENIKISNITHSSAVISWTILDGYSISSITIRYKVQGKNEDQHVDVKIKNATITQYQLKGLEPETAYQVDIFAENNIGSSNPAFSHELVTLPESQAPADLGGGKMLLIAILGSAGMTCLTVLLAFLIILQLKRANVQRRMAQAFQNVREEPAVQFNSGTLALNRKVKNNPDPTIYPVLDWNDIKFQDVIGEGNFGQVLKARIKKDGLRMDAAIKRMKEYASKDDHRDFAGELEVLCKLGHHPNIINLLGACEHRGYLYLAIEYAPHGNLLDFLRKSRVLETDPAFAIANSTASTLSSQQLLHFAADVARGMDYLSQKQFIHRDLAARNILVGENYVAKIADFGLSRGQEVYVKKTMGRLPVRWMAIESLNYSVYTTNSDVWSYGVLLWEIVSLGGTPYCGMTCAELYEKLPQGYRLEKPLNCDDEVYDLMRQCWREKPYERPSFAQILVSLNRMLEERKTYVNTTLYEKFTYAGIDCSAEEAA
Sequence of STK33 (human) (Q9BYT3 whole entry, looked up): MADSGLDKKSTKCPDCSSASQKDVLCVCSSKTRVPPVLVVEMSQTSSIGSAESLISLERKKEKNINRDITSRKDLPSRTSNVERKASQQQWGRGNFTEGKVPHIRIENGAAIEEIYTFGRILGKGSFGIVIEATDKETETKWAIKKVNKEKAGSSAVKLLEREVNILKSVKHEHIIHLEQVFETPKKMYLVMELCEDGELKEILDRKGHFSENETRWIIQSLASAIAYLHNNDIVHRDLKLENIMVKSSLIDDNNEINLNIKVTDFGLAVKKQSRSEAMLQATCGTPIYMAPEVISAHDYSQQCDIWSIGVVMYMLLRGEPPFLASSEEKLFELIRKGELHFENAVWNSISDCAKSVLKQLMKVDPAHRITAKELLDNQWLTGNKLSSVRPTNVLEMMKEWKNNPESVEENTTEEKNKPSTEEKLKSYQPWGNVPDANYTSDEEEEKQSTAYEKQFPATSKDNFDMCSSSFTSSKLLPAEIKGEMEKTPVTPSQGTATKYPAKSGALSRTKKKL
Sequence of STK16 (human) (O75716 whole entry, looked up): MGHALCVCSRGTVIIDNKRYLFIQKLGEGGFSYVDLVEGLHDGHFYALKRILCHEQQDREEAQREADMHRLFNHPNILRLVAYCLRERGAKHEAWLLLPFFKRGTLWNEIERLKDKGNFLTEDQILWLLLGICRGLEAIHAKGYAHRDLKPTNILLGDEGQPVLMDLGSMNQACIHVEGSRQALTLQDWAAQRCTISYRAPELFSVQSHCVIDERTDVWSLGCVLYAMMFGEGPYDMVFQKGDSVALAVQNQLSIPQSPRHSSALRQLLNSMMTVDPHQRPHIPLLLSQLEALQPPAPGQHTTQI

Row | residual activity ([1]; compound 0.1 µM) [%] | residual activity ([1]; compound 1.0 µM) [%] | residual activity ([2]; compound 1.0 µM) [%] | residual activity ([3]; compound 0.1 µM) [%] | residual activity ([3]; compound 1.0 µM) [%] | residual activity ([4]; compound 0.1 µM) [%] | residual activity ([4]; compound 1.0 µM) [%] | residual activity ([5]; compound 1.0 µM) [%] | residual activity ([6]; compound 0.1 µM) [%] | residual activity ([6]; compound 1.0 µM) [%] | residual activity ([7]; compound 1.0 µM) [%] | residual activity ([8]; compound 1.0 µM) [%] | residual activity ([1]; compound 10.0 µM) [%] | residual activity ([2]; compound 10.0 µM) [%] | residual activity ([3]; compound 10.0 µM) [%] | residual activity ([4]; compound 10.0 µM) [%] | residual activity ([5]; compound 10.0 µM) [%] | residual activity ([6]; compound 10.0 µM) [%] | residual activity ([7]; compound 10.0 µM) [%] | residual activity ([8]; compound 10.0 µM) [%] | SMILES | further results
1 | 65 | 25 | 71 | 110 | 96 | 120 | 85 | 101 | 103 | 100 | 93 | 87 | – | – | – | – | – | – | – | – | COc1cc(O)c2c(c1)/C=C/C[C@H](O)[C@H](O)C(=O)/C=C\C[C@H](C)OC2=O | residual activity ([2]; compound 0.1 µM): 108%; residual activity ([5]; compound 0.1 µM): 103%; residual activity ([7]; compound 0.1 µM): 103%; residual activity ([8]; compound 0.1 µM): 87%
2 | – | 114 | 93 | – | 94 | – | 87 | 107 | – | 98 | – | 98 | 95 | 82 | 80 | 74 | 92 | 100 | 75 | 110 | NC(=O)c1c(NC(=O)C2CC2)sc2c1CCCC2 | –
3 | – | – | – | – | – | – | – | – | – | – | – | – | 101 | 111 | 85 | 97 | 94 | 99 | 112 | 98 | O=S(=O)(c1ccc(F)c2nonc12)N1CCN(c2ncc(C(F)(F)F)cc2Cl)CC1 | –
4 | 96 | 110 | – | 92 | 94 | 80 | 52 | 104 | 89 | 98 | 81 | 98 | – | – | – | – | – | – | – | – | O=C(NCCCNc1nc(Nc2cccc(CN3CCOCC3)c2)ncc1C1CC1)C1CCC1 | residual activity ([9]; compound 0.1 µM): 90%; residual activity ([9]; compound 1.0 µM): 108%; residual activity ([10]; compound 0.1 µM): 96%; residual activity ([10]; compound 1.0 µM): 79%; residual activity ([11]; compound 0.1 µM): 92%; residual activity ([11]; compound 1.0 µM): 86%; residual activity ([12]; compound 0.1 µM): 83%; residual activity ([12]; compound 1.0 µM): 94%; residual activity ([7]; compound 0.1 µM): 95%; residual activity ([8]; compound 0.1 µM): 88%
5 | – | 99 | 96 | – | 104 | – | 101 | 46 | – | 94 | 78 | 81 | – | 89 | – | 89 | 47 | 91 | 67 | 85 | Cc1nc(-c2ccc(OCC(C)C)c(C#N)c2)sc1C(=O)O | residual activity ([9]; compound 1.0 µM): 86%; residual activity ([9]; compound 10.0 µM): 94%; residual activity ([10]; compound 1.0 µM): 106%; residual activity ([10]; compound 10.0 µM): 102%; residual activity ([11]; compound 1.0 µM): 94%; residual activity ([11]; compound 10.0 µM): 88%; residual activity ([12]; compound 1.0 µM): 96%; residual activity ([12]; compound 10.0 µM): 80%
6 | – | 126 | 101 | – | 77 | – | 92 | 87 | – | 97 | 106 | 110 | 110 | 107 | 98 | 90 | 86 | 93 | 87 | 100 | O=C(NOCC(O)CO)c1ccc(F)c(F)c1Nc1ccc(I)cc1Cl (configuration not stated) | residual activity ([9]; compound 1.0 µM): 95%; residual activity ([9]; compound 10.0 µM): 100%; residual activity ([10]; compound 1.0 µM): 81%; residual activity ([10]; compound 10.0 µM): 79%; residual activity ([12]; compound 10.0 µM): 87%
7 | 104 | 93 | 106 | 116 | 106 | 100 | 100 | 98 | 106 | 94 | 118 | 109 | 104 | 109 | 92 | 89 | 100 | 96 | 113 | 96 | CCCCCc1ccc(/C=C/[C@H](O)[C@@H](CO)NC)cc1 | residual activity ([2]; compound 0.1 µM): 110%; residual activity ([5]; compound 0.1 µM): 104%; residual activity ([7]; compound 0.1 µM): 141%; residual activity ([8]; compound 0.1 µM): 101%
